{"source": "paper PMC10321224", "about": "(RSC Advances, 2023)", "key": {"[1]": {"tested_on": "MDA-MB-231 (triple-negative breast cancer cells)", "experiment": "Resazurin antiproliferative assay, MDA-MB-231 cells", "assay_type": "cell-based, human", "details": "towards HFF-1 cell lines"}, "[2]": {"tested_on": "DU-145 (hormone-refractory prostate cancer cells)", "experiment": "Resazurin antiproliferative assay, DU-145 cells", "assay_type": "cell-based, human", "details": "towards HFF-1 cell lines"}}, "data": [{"smiles": "C[C@@H]1C[C@H](c2ccc(Br)cc2)c2c(cc3ccccn23)C(=O)O1", "note": "(racemic) [cis-4d]", "values": [{"measurement": "Selectivity index (SI = CC50/IC50) HFF-1/MDA-MB-231", "setting": "[1]", "value": 0.06}, {"measurement": "Selectivity index (SI = CC50/IC50) HFF-1/DU-145", "setting": "[2]", "value": 0.03}]}, {"smiles": "COc1cc(OC)cc([C@H]2C[C@@H](C)OC(=O)c3cc4ccccn4c32)c1", "note": "(racemic) [cis-4f]", "values": [{"measurement": "Selectivity index (SI = CC50/IC50) HFF-1/MDA-MB-231", "setting": "[1]", "value": "> 5"}, {"measurement": "Selectivity index (SI = CC50/IC50) HFF-1/DU-145", "setting": "[2]", "value": "> 2"}]}]}
